≈ marks a conversion by molar mass, not a printed value. Where “and” joins values, the source holds several entries; their conditions need not be identical. Equal values may be shown once.
Tests used:
carcinogenic cell lines [1] = assay: Flow cytometric analysis of apoptosis and necrosis (Apoptosis, Necrosis and Healthy Cell Quantitation Kit Plus); format: cell-based; conditions: IC50 concentration, 24-h incubation
Text: The flow cytometer was used to calculate the percentages of apoptotic and necrotic cells in four different quadrants, which are denoted by the letters “UL, UR, LL, LR” (Upper Left, Upper Right, Lower Left, Lower Right). The four distinct quadrants in the diagram represent the following areas, respectively: Apoptotic or early apoptotic cells, LR: CF488A+/(EthD-III)-; necrotic or late apoptotic cells, […]: CF488A+/(EthD-III)+; intact cells, LL: CF488A/(EthD-III); and dead or necrotic cells, UR: CF488A+/(EthD-III)+. The IC50 concentration of each substance was used in administration.
Death pathway of the carcinogenic cell lines was detected by Apoptosis, Necrosis and Healthy Cell Quantitation Kit Plus (Cat: 30066, Biotium, Hayward, CA, USA)[22] as reported in the manufacturer’s instruction. The IC50 values for doxorubicin and compound 2j were applied. Cells were collected by centrifugation at 1200 rpm for 5 min following a 24-h incubation period. It was washed 2 times with PBS, centrifuged and turned into pellets. One ×10^6 cells/mL of annexin were suspended in V-FITC binding buffer. Ethidium iodide ([…]), Hoestch 1 mL, and annexin V-FITC ([…]) were added to stain cells and using the CytoFLEX Flow Cytometer (Beckman Coulter Life Sciences, USA) and CytExpert for CytoFLEX Acquisition and Analysis Software Version 2.2.0.97 instrument. Fluorescence measurements were made using a flow cytometer in accordance with the instrument procedure.

[2] = test system: C. parapsilopsis (ATCC 22019); assay: Anticandidal activity, MIC50 by resazurin fluorometric measurement; format: cell-based, Candida parapsilopsis; conditions: Candida, ATCC22019; means of triplicate assays
Protocol: (§1) Obtained compounds (2a–2j) were evaluated for anticandidal activity against Candida albicans (C. albicans) (ATCC 24433), Candida krusei (C. krusei) (ATCC 6258), and Candida parapsilopsis (C. parapsilopsis) (ATCC 22019). MIC50 values were determined via fluorometric measurements, using resazurin solution.[13] Voriconazole and fluconazole were used as a standard drug in the anticandidal activity test. […] In general, it is seen that the 2-methoxyethyl substituent increases the anticandidal activity.
(§2) The antimicrobial activity of obtained derivatives (2a–2j) was screened on six bacterial and three fungal strains according to the standard procedure of CLSI[20] as described in the previous study.[21] The antibacterial activities of the obtained compounds were screened against B. subtilis (ATCC 6051), E. coli (ATCC 25922), E. faecalis (ATCC 2942), P. aeruginosa (ATCC 27853), S. aureus (ATCC 29213), and S. epidermidis (ATCC 12228). The obtained compounds were evaluated for anticandidal activity against C. albicans (ATCC 24433), C. krusei (ATCC 6258), and C. parapsilopsis (ATCC 22019). For antibacterial activity, azithromycin was utilized as a reference drug, whereas voriconazole and fluconazole were used for anticandidal activity.

VEGFR-2 enzyme = molecular target: T1, VEGFR-2 enzyme (Homo sapiens, UniProt P35968); assay: VEGFR-2 inhibition assay (VEGFR-2 Kinase Assay Kit); format: biochemical; conditions: serial 11 dilutions, 1000 μM–0.01 μM
T1 construct: purchased
T1 sequence (P35968 20-1356): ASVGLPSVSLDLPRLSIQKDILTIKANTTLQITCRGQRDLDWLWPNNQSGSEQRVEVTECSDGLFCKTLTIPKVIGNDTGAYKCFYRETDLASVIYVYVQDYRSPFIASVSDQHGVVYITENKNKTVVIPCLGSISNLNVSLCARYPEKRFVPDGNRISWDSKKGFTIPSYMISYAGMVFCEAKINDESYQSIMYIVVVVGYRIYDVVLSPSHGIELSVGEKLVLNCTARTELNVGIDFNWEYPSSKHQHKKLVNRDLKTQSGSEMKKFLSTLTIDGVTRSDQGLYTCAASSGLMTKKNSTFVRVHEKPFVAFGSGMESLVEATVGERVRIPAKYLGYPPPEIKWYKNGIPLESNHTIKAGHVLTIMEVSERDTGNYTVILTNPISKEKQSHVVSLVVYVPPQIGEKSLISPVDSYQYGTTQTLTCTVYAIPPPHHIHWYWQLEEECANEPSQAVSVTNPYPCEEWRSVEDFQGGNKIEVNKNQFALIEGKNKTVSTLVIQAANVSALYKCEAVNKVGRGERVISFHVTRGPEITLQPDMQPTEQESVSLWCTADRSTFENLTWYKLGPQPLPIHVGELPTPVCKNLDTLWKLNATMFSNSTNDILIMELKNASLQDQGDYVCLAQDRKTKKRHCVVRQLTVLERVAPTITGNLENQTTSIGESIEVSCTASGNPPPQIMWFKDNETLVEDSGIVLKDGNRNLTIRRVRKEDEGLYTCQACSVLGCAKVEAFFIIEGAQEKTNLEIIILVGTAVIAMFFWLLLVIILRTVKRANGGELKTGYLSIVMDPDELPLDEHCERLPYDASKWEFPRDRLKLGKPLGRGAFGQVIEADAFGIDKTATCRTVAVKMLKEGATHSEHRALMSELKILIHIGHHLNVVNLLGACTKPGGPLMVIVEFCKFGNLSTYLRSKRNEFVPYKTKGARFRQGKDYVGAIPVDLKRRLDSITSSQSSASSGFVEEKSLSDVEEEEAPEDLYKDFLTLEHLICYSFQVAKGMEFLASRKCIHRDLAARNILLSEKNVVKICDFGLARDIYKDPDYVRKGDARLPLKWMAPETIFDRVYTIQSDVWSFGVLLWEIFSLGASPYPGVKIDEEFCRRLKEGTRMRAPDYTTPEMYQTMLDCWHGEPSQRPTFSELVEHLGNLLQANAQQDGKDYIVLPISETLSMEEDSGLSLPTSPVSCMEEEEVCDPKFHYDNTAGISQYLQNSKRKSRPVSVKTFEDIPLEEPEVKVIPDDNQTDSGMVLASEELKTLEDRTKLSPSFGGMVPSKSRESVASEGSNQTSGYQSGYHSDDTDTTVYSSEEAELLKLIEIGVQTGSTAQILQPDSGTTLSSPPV
Protocol: The VEGFR-2 Kinase Assay Kit (Available from ref ([15])) was used for the VEGFR-2 inhibition. The experiment was performed in vitro according to the kit procedure. Serial 11 dilutions of compound 2j were prepared at concentrations of 1000 μM–0.01 μM. The IC50 value for compound 2j was calculated using the kit procedure.
The VEGFR-2 Kinase Assay Kit (available from ref ([15])) was used for the VEGFR-2 inhibition. The experiment was performed in vitro according to the kit procedure.

carcinogenic cell lines [3] = assay: Flow cytometric analysis of apoptosis and necrosis (Apoptosis, Necrosis and Healthy Cell Quantitation Kit Plus); format: cell-based; conditions: IC50 concentration, 24-h incubation; remark: listed apart in the source
A549 cell line [4] = assay: MTT cytotoxicity test; format: cell-based; conditions: for IC50: MTT, 24-h treatment, means of quartet assays ± SEM
Protocol: (§3) The MTT test was performed using 3 different cell lines for calculated IC50 values of obtained compounds. […] For this purpose, the cytotoxic effects of the compounds against the healthy mouse fibroblast cell (NIH3T3) were investigated.
(§4) The 3-(4,5-dimethylthiazol-2-yl)-2,5-diphenyltetrazolium salt reduction method, or MTT assay, is used to measure the metabolic activity of live cells. […] Doxorubicin is used as a therapeutic drug. MTT assays were carried out as previously explained.[19]

HepG2 cell line = assay: MTT cytotoxicity test; format: cell-based; conditions: Homo sapiens, 24-h treatment, means of quartet assays ± SEM
Protocol: as §3, §4

[5] = test system: healthy mouse fibroblast cell (NIH3T3); assay: MTT cytotoxicity test on healthy cells; format: cell-based; conditions: 24-h treatment, means of quartet assays ± SEM
Protocol: as §3, §4

[6] = test system: S. epidermidis (ATCC 12228); assay: Antibacterial activity, MIC50 by resazurin fluorometric measurement; format: cell-based, Staphylococcus epidermidis
Protocol: (§5) Obtained compounds (2a–2j) were evaluated for antibacterial activity against Escherichia coli (E. coli) (ATCC 25922), Pseudomonas aeruginosa (P. aeruginosa) (ATCC 27853), […] (E. faecalis) (ATCC 2942), Bacillus subtilis (B. subtilis) (ATCC 6051), Staphylococcus aureus (S. aureus) (ATCC 29213), and Staphylococcus epidermidis (S. epidermidis) (ATCC 12228). MIC50 values were determined via fluorometric measurements, using resazurin solution.[13] Azithromycin was used as a standard drug in the antibacterial activity test.
as §2

C. krusei (ATCC 6258) = assay: Anticandidal activity, MIC50 by resazurin fluorometric measurement; format: cell-based, Candida krusei
Protocol: as §1, §2

A549 cell line [7] = assay: Analysis of mitochondrial membrane potential (MMP) by flow cytometry, JC-1 dye; format: cell-based; conditions: A549, IC50 concentration, 24-h incubation
Protocol: After a 24-h incubation period, mitochondrial membrane potential was measured with JC-1 dye.
The BD Mitoscreen Mitochondrial Membrane Potential Detection JC-1 Kit (available from ref ([23])) was used for the MMP test. First, A549 cells were seeded in 25 mL flasks and incubated for 24 h in a 5% CO2 incubator. […] At the end of this period, cells were collected and centrifuged in accordance with the kit contents. After the upper part was removed, JC-1 dye was added and incubated at 37 °C for 10–15 min. At the end of the period, it was washed 2 times with washing solution and reading was done with the appropriate procedure using the CytoFLEX Flow Cytometer (Beckman Coulter Life Sciences, USA) and CytExpert for CytoFLEX Acquisition and Analysis Software Version 2.2.0.97.

C. albicans (ATCC 24433) = assay: Anticandidal activity, MIC50 by resazurin fluorometric measurement; format: cell-based, Candida albicans
Protocol: as §1, §2

S. aureus (ATCC 29213) = assay: Antibacterial activity, MIC50 by resazurin fluorometric measurement; format: cell-based, Staphylococcus aureus
Protocol: as §5, §2

E. coli (ATCC 25922) = assay: as above; format: cell-based; conditions: Escherichia coli, ATCC25922; means of triplicate assays
Protocol: as §5, §2

[8] = test system: P. aeruginosa (ATCC 27853); assay: as above; format: cell-based; conditions: Pseudomonas aeruginosa, ATCC27853; means of triplicate assays
Protocol: as §5, §2

B. subtilis (ATCC 6051) = assay: as above; format: cell-based; conditions: Bacillus subtilis, ATCC6051; means of triplicate assays
Protocol: as §5, §2

E. faecalis (ATCC 2942) = assay: as above; format: cell-based, Enterococcus faecalis
Protocol: as §5, §2

COCCN1CCN(c2ccc(C(=O)C=Cc3ccc4ccccc4c3)cc2)CC1 [2j, 1-(4-(4-(2-Methoxyethyl)piperazin-1-yl)phenyl)-3-(naphthalen-2-yl)prop-2-en-1-one]
early apoptosis (Q1-LR) (carcinogenic cell lines [1]): 3.97%
intact cells (Q1-LL) (carcinogenic cell lines [1]): 67.71%
necrosis (Q1-UL) (carcinogenic cell lines [1]): 18.06% and 18.1%
rate of apoptosis (early + late apoptosis) (carcinogenic cell lines [1]): 14.230% and 14.2%
MIC50 [2]: > 100 µg/mL
IC50 (VEGFR-2 enzyme): 0.098 ± 0.005 µM
late apoptosis (Q1-UR) (carcinogenic cell lines [3]): 10.26% and 10.3%
IC50 (A549 cell line [4]; Homo sapiens, A549, 24 h): < 10 µM
IC50 (A549 cell line [4]): 7.8 µM and 7.83 µM
selectivity index (IC50 value vs healthy cell/IC50 value vs cancer cell) (A549 cell line [4]; NIH3T3 vs A549 cell line): 1.990
IC50 (HepG2 cell line): 38.9 ± 1.34 µM
IC50 [5]: 15.6 ± 0.75 µM
MIC50 ([6]; Staphylococcus epidermidis, ATCC12228, means of triplicate assays, read-out: MIC50 S. epidermis): 31.2 µg/mL (≈ 78 µM)
MIC50 S. epidermis ([6]; means of triplicate assays): 31.3 µg/mL (≈ 78.1 µM)
MIC50 (C. krusei (ATCC 6258); Pichia kudriavzevii, ATCC6258, means of triplicate assays): 15.6 µg/mL (≈ 39 µM)
MIC50 C. krusei (C. krusei (ATCC 6258); means of triplicate assays): 15.6 µg/mL (≈ 38.9 µM)
mitochondrial membrane potential (P3) (A549 cell line [7]): 58.870%
MIC50 (C. albicans (ATCC 24433); Candida albicans, ATCC24433, means of triplicate assays): 15.6 µg/mL (≈ 39 µM)
MIC50 C. albicans (C. albicans (ATCC 24433); means of triplicate assays): 15.6 µg/mL (≈ 38.9 µM)
MIC50 (S. aureus (ATCC 29213); Staphylococcus aureus, ATCC29213, means of triplicate assays): 31.2 µg/mL (≈ 78 µM)
MIC50 S. aureus (S. aureus (ATCC 29213); means of triplicate assays): 31.3 µg/mL (≈ 78.1 µM)
MIC50 (E. coli (ATCC 25922)): > 100 µg/mL
MIC50 [8]: 62.5 µg/mL (≈ 156 µM)
MIC50 (B. subtilis (ATCC 6051)): > 100 µg/mL
MIC50 (E. faecalis (ATCC 2942); Enterococcus faecalis, ATCC2942, means of triplicate assays): 15.6 µg/mL (≈ 38.9 µM)
MIC50 E. faecalis (E. faecalis (ATCC 2942); means of triplicate assays): 15.7 µg/mL (≈ 39.2 µM)
